Measurements from ChEMBL document CHEMBL4842340, “Development of Cagrilintide, a Long-Acting Amylin Analogue” (J Med Chem, 2021).
In brackets after ≈: the same amount, converted by molar mass. *1 amine or outer side, *2 acyl side, *3 side chain or, on linkers, in order; H or OH if unused. Where a SMILES comes first, the peptide text is derived from it. Bridges are numbered along the chain shown (N, C = ends). The star is where a group is joined. C20 diacid = O=C(O)CCCCCCCCCCCCCCCCCCC(=O)*; γGlu = O=C(O)[C@H](CCC(=O)[*:2])N[*:1]; AEEA = NCCOCCOCC(=O)O

Experiments:
[1] = Displacement of [125I]-amylin from human AMY3R (CTR+RAMP3) expressed in BHK-13 cells measured after 120 mins by scintillation proximity assay; assay type: cell-based
[2] = biological target: Insulin (Homo sapiens) (UniProt P01308); assay: Effect on insulin (unknown origin) amyloid fibril formation assessed as lag time in glycyl-glycine buffer at pH 4 measured after 45 hrs by thioflavin-T fluorescence assay
[3] = Displacement of [125I]-amylin from rat AMY3R (CTR+RAMP3) expressed in BHK-13 cells measured after 120 mins by scintillation proximity assay; assay type: cell-based
[4] = species: Rattus norvegicus; assay: Ratio of EC50 for rat calcitonin receptor expressed in BHK-13 cells to EC50 for rat AMY3R (CT+RAMP3) expressed in tk-ts13 cells; assay type: cell-based
[5] = Agonist activity at human calcitonin receptor expressed in BHK570 cells assessed as increase in intracellular cAMP concentration incubated for 3 hrs in absence of albumin by CRE luciferase reporter gene assay; assay type: cell-based; settings: BHK570, 3 h
[6] = Displacement of [125I]-calcitonin from human calcitonin receptor expressed in tk-ts 13 cells measured after 120 mins by scintillation proximity assay; assay type: cell-based; settings: tk-ts13
[7] = species: Homo sapiens; assay: Ratio of EC50 for human calcitonin receptor expressed in BHK570 cells to EC50 for human AMY3R (CT+RAMP3) expressed in Hollex1 cells; assay type: cell-based
[8] = Solubility of the compound in bis-tris propane at pH 7 by UPLC analysis; assay type: physicochemical; settings: bis-tris propane buffer
[9] = Solubility of the compound in bis-tris propane at pH 6.5 by UPLC analysis; assay type: physicochemical; settings: bis-tris propane buffer
[10] = Solubility of the compound in lactate at pH 3 by UPLC analysis; assay type: physicochemical; settings: lactate buffer
[11] = Solubility of the compound in lactate at pH 4 by UPLC analysis; assay type: physicochemical; settings: lactate buffer
[12] = species: Homo sapiens; assay: Ratio of IC50 for displacement of [125I]-calcitonin from human calcitonin receptor expressed in tk-ts 13 cells to IC50 for displacement of [125I]-amylin from human AMY3R (CTR+RAMP3) expressed in BHK-13 cells; assay type: cell-based
[13] = Solubility of the compound in bis-tris propane at pH 7.5 by UPLC analysis; assay type: physicochemical; settings: bis-tris propane buffer
[14] = species: Rattus norvegicus; assay: Ratio of IC50 for displacement of [125I]-calcitonin from rat calcitonin receptor expressed in tk-ts 13 cells to IC50 for displacement of [125I]-amylin from rat AMY3R (CTR+RAMP3) expressed in BHK-13 cells; assay type: cell-based
[15] = Agonist activity at rat calcitonin receptor expressed in BHK-13 cells assessed as increase in intracellular cAMP concentration incubated for 25 mins by CRE luciferase reporter gene assay; assay type: cell-based; settings: BHK-13, 25 min
[16] = Solubility of the compound in lactate at pH 5 by UPLC analysis; assay type: physicochemical; settings: lactate buffer
[17] = tested on: Rattus norvegicus; assay: Reduction in food intake in Sprague-Dawley rat at 30 nmol/kg, sc administered as single dose measured after 24 to 48 hrs relative to control; assay type: functional; set-up: scale not given: the % may be the effect or the level left; settings: time 24-48 hrs
[18] = Displacement of [125I]-calcitonin from rat calcitonin receptor expressed in tk-ts 13 cells measured after 120 mins by scintillation proximity assay; assay type: cell-based; settings: tk-ts13
[19] = Solubility of the compound in bis-tris propane at pH 6 by UPLC analysis; assay type: physicochemical; settings: bis-tris propane buffer
[20] = Agonist activity at human AMY3R (CT+RAMP3) expressed in Hollex1 cells incubated for 3 hrs by luminescence assay; assay type: cell-based; settings: Hollex1, 3 h
[21] = Agonist activity at rat AMY3R (CT+RAMP3) expressed in tk-ts13 cells assessed as increase in intracellular cAMP level incuabted for 25 mins by CRE luciferase reporter gene assay; assay type: cell-based; settings: tk-ts13, 25 min
[22] = biological target: Insulin (Homo sapiens) (UniProt P01308); assay: Effect on insulin (unknown origin) amyloid fibril formation assessed as peptide recovery in glycyl-glycine buffer at pH 4 measured after 45 hrs by thioflavin-T fluorescence assay relative to control; set-up: concentration or dose not given beside the values
[23] = tested on: Rattus norvegicus; assay: Reduction in food intake in Sprague-Dawley rat at 30 nmol/kg, sc administered as single dose measured upto 24 hrs relative to control; assay type: functional; set-up: scale not given: the % may be the effect or the level left; settings: time hrs <=24
[24] = Solubility of the compound in bis-tris propane at pH 8 by UPLC analysis; assay type: physicochemical; settings: bis-tris propane buffer
[25] = tested on: Rattus norvegicus; assay: Reduction in food intake in Sprague-Dawley rat at 3 nmol/kg, sc administered as single dose measured upto 24 hrs relative to control; assay type: functional; set-up: scale not given: the % may be the effect or the level left; settings: time hrs <=24
[26] = biological target: Insulin (Homo sapiens) (UniProt P01308); assay: Effect on insulin (unknown origin) amyloid fibril formation assessed as lag time in HEPES buffer at pH 7.5 measured after 45 hrs by thioflavin-T fluorescence assay
[27] = tested on: Rattus norvegicus; assay: Reduction in food intake in Sprague-Dawley rat at 3 nmol/kg, sc administered as single dose measured after 24 to 48 hrs relative to control; assay type: functional; set-up: scale not given: the % may be the effect or the level left; settings: time 24-48 hrs

Sequence of Insulin (Homo sapiens) (P01308 whole entry): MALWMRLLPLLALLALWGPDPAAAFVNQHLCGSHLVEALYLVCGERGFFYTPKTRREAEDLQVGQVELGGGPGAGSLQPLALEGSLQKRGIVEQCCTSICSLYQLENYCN

Row | Compound | TIME [2] [h] | Ratio EC50 [4] | EC50 [5] [pM] | Ratio EC50 [7] | solubility [8] [µM] | solubility [9] [µM] | solubility [10] [µM] | solubility [11] [µM] | solubility [13] [µM] | EC50 [15] [pM] | solubility [16] [µM] | solubility [19] [µM] | EC50 [20] [pM] | EC50 [21] [pM] | Activity [22] [%] | solubility [24] [µM] | other results
1 | CC[C@H](C)[C@H](NC(=O)[C@@H]1CCCN1C(=O)CNC(=O)[C@H](Cc1ccccc1)NC(=O)[C@H](CC(N)=O)NC(=O)[C@H](CC(N)=O)NC(=O)[C@H](CO)NC(=O)[C@H](CO)NC(=O)[C@H](Cc1cnc[nH]1)NC(=O)[C@H](Cc1cnc[nH]1)NC(=O)[C@H](CC(C)C)NC(=O)[C@H](Cc1ccccc1)NC(=O)[C@H](CC(N)=O)NC(=O)[C@H](C)NC(=O)[C@H](CC(C)C)NC(=O)[C@H](CCCNC(=N)N)NC(=O)[C@H](CCC(N)=O)NC(=O)[C@@H](NC(=O)[C@H](C)NC(=O)[C@@H]1CSSC[C@H](NC(=O)[C@H](CCCNC(=N)N)NC(=O)[C@H](CCCNC(=N)N)NC(=O)[C@H](CCCNC(=N)N)NC(=O)COCCOCCNC(=O)COCCOCCNC(=O)CC[C@H](NC(=O)CCCCCCCCCCCCCCCCCCC(=O)O)C(=O)O)C(=O)N[C@@H](CC(N)=O)C(=O)N[C@@H]([C@@H](C)O)C(=O)N[C@@H](C)C(=O)N[C@@H]([C@@H](C)O)C(=O)N1)[C@@H](C)O)C(=O)N[C@@H](CC(C)C)C(=O)N1CCC[C@H]1C(=O)N1CCC[C@H]1C(=O)N[C@H](C(=O)N[C@@H](CC(N)=O)C(=O)N[C@H](C(=O)NCC(=O)N[C@@H](CO)C(=O)N[C@@H](CCCNC(=N)N)C(=O)N[C@H](C(=O)N[C@@H](Cc1ccc(O)cc1)C(N)=O)[C@@H](C)O)C(C)C)[C@@H](C)O ({C20 diacid-γGlu-AEEA-AEEA}-RRRCNTATCATQRLANFLHHSSNNFGPILPPTNVGSRTY-NH2; disulfide 4-9) | 45 | 93 | 1240 | 16 | 200 (≈ 1020 µg/mL) | 200 (≈ 1020 µg/mL) | 200 (≈ 1020 µg/mL) | 200 (≈ 1020 µg/mL) | 200 (≈ 1020 µg/mL) | 12100 | 200 (≈ 1020 µg/mL) | 200 (≈ 1020 µg/mL) | 76 | 130 | 93 | 200 (≈ 1020 µg/mL) | IC50 [1]: 213 pM; IC50 [3]: 648 pM; IC50 [6]: 9180 pM; Ratio IC50 [12]: 43; Ratio IC50 [14]: 138; Activity [17]: 0%; IC50 [18]: 89200 pM; Activity [23]: 32%
2 | CC[C@H](C)[C@H](NC(=O)[C@@H]1CCCN1C(=O)CNC(=O)[C@H](Cc1ccccc1)NC(=O)[C@H](CC(N)=O)NC(=O)[C@H](CC(N)=O)NC(=O)[C@H](CO)NC(=O)[C@H](CO)NC(=O)[C@H](Cc1c[nH]cn1)NC(=O)[C@H](Cc1cnc[nH]1)NC(=O)[C@H](CC(C)C)NC(=O)[C@H](Cc1ccccc1)NC(=O)[C@H](CCC(=O)O)NC(=O)[C@H](C)NC(=O)[C@H](CC(C)C)NC(=O)[C@H](CCCNC(=N)N)NC(=O)[C@H](CCC(N)=O)NC(=O)[C@@H](NC(=O)[C@H](C)NC(=O)[C@@H]1CSSC[C@H](NC(=O)[C@H](CCCCN)NC(=O)CC[C@H](NC(=O)CC[C@H](NC(=O)CCCCCCCCCCCCCCCCCCC(=O)O)C(=O)O)C(=O)O)C(=O)N[C@@H](CC(N)=O)C(=O)N[C@@H]([C@@H](C)O)C(=O)N[C@@H](C)C(=O)N[C@@H]([C@@H](C)O)C(=O)N1)[C@@H](C)O)C(=O)N[C@@H](CC(C)C)C(=O)N1CCC[C@H]1C(=O)N1CCC[C@H]1C(=O)N[C@H](C(=O)N[C@@H](CC(N)=O)C(=O)N[C@H](C(=O)NCC(=O)N[C@@H](CO)C(=O)N[C@@H](Cc1cnc[nH]1)C(=O)N[C@H](C(=O)N[C@@H](Cc1ccc(O)cc1)C(N)=O)[C@@H](C)O)C(C)C)[C@@H](C)O ({C20 diacid-γGlu-γGlu}-KCNTATCATQRLAEFLHHSSNNFGPILPPTNVGSHTY-NH2; disulfide 2-7) | 16 | 8 | 347 | 1 | 200 (≈ 922 µg/mL) | 200 (≈ 922 µg/mL) | 200 (≈ 922 µg/mL) | 200 (≈ 922 µg/mL) | 200 (≈ 922 µg/mL) | 4970 | 200 (≈ 922 µg/mL) | 200 (≈ 922 µg/mL) | 297 | 623 | 35 | 200 (≈ 922 µg/mL) | Activity [25]: 46%; TIME [26]: 4 h; Activity [27]: 21%
